The values below come from US8236792B2, “Substituted pyrrolidine amides as modulators of the histamine H3 receptor” (Janssen Pharmaceutica NV, priority 2008, dated 2012).

This test deals with human H3 receptor (Homo sapiens, UniProt Q9Y5N1). Description: H3 Receptor Binding (Human) Method 2, [125I]-iodoproxyfan competitive radioligand binding. Set-up: expressed in transfected cells.

The structures appear in SMILES notation. Like-named read-outs stand apart in the source and are kept apart here.

Sequence of human H3 receptor (Q9Y5N1 whole entry): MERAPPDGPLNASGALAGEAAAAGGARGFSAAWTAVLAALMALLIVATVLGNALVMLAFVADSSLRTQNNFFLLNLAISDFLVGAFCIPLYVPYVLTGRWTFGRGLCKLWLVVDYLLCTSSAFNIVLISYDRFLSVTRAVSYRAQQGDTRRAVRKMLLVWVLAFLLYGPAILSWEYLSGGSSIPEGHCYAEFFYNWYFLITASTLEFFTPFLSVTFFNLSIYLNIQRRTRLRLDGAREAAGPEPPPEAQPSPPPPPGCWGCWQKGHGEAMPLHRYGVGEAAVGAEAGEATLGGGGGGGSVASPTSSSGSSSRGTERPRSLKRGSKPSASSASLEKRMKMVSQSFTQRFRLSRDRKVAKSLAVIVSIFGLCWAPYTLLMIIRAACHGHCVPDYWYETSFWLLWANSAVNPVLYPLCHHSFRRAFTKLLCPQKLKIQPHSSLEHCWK

With `CC(C)(C)OC(=O)N1C[C@@H](Oc2ccsc2)C[C@@H]1C(=O)N1CCCN(C2CCC2)CC1` [Example 54, (2R,4S)-2-(4-Cyclobutyl-[1,4]diazepane-1-carbonyl)-4-(thiophen-3-yloxy)-pyrrolidine-1-carboxylic acid tert-butyl ester], for the setting “read-out: Human H3 Ki”, the Ki amounted to 11 nM.
Still for that read-out and setting: for `CC(C)(C)OC(=O)N1C[C@H](Oc2cccc(F)c2)C[C@@H]1C(=O)N1CCCN(C2CCC2)CC1` [Example 55, (2R,4R)-2-(4-Cyclobutyl-[1,4]diazepane-1-carbonyl)-4-(3-fluoro-phenoxy)-pyrrolidine-1-carboxylic acid tert-butyl ester] the value was 57 nM; for `CC(C)(C)OC(=O)N1C[C@H](Oc2ccc(F)cc2)C[C@@H]1C(=O)N1CCCN(C2CCC2)CC1` [Example 56, (2R,4R)-2-(4-Cyclobutyl-[1,4]diazepane-1-carbonyl)-4-(4-fluoro-phenoxy)-pyrrolidine-1-carboxylic acid tert-butyl ester], 49 nM; for `CC(C)(C)OC(=O)N1C[C@H](Oc2ccc(Cl)cc2)C[C@@H]1C(=O)N1CCCN(C2CCC2)CC1` [Example 57, (2R,4R)-4-(4-Chloro-phenoxy)-2-(4-cyclobutyl-[1,4]diazepane-1-carbonyl)-pyrrolidine-1-carboxylic acid tert-butyl ester], 93 nM.
Still for that read-out and setting: the same measure for `CC(C)(C)OC(=O)N1C[C@H](Oc2ccccc2)C[C@@H]1C(=O)N1CCCN(C2CCC2)CC1` [Example 58, (2R,4R)-2-(4-Cyclobutyl-[1,4]diazepane-1-carbonyl)-4-phenoxy-pyrrolidine-1-carboxylic acid tert-butyl ester]: 211 nM; for `CC(C)(C)OC(=O)N1C[C@H](Oc2ccc(C#N)cc2)C[C@@H]1C(=O)N1CCCN(C2CCC2)CC1` [Example 60, (2R,4R)-4-(4-Cyano-phenoxy)-2-(4-cyclobutyl-[1,4]diazepane-1-carbonyl)-pyrrolidine-1-carboxylic acid tert-butyl ester]: 160 nM; for `CC(C)(C)OC(=O)N1C[C@@H](Sc2ccc(F)cc2)C[C@@H]1C(=O)N1CCCN(C2CCC2)CC1` [Example 61, (2R,4S)-2-(4-Cyclobutyl-[1,4]diazepane-1-carbonyl)-4-(4-fluoro-phenylsulfanyl)-pyrrolidine-1-carboxylic acid tert-butyl ester]: 17 nM.
Still for that read-out and setting: the same measure for `Cc1cccc(O[C@@H]2CN[C@@H](C(=O)N3CCCN(C4CCC4)CC3)C2)c1` [Example 74, (2R,4S)-4-(4-m-Tolyloxy)-2-(4-cyclobutyl-[1,4]diazepane-1-carbonyl)-pyrrolidine]: 5 nM; for `O=C([C@H]1C[C@H](Oc2ccc(C(F)(F)F)cc2)CN1)N1CCCN(C2CCC2)CC1` [Example 75, (2R,4S)-4-(4-Trifluoromethyl-phenoxy)-2-(4-cyclobutyl-[1,4]diazepane-1-carbonyl)-pyrrolidine]: 4 nM.
For `Cc1ccc(O[C@@H]2CN[C@@H](C(=O)N3CCCN(C4CCC4)CC3)C2)cc1` [Example 76, (2R,4S)-4-(4-p-Tolyloxy)-2-(4-cyclobutyl-[1,4]diazepane-1-carbonyl)-pyrrolidine], for the setting “read-out: Human H3 Ki”, the Ki was 5 nM.
The same measure, in the same setting: for `Cc1ccccc1O[C@@H]1CN[C@@H](C(=O)N2CCCN(C3CCC3)CC2)C1` [Example 77, (2R,4S)-4-(4-o-Tolyloxy)-2-(4-cyclobutyl-[1,4]diazepane-1-carbonyl)-pyrrolidine] the value was 3 nM; for `O=C([C@H]1C[C@H](Oc2ccc(F)cc2)CN1)N1CCCN(C2CC2)CC1` [Example 78, (2R,4S)-2-(4-Cyclopropyl-[1,4]diazepane-1-carbonyl)-4-(4-fluoro-phenoxy)-pyrrolidine], 20 nM; for `N#Cc1ccc(O[C@@H]2CN[C@@H](C(=O)N3CCCN(C4CC4)CC3)C2)cc1` [Example 79, (2R,4S)-4-(4-Cyano-phenoxy)-2-(4-cyclopropyl-[1,4]diazepane-1-carbonyl)-pyrrolidine], 12 nM.
`O=C([C@H]1C[C@H](Oc2ccc(F)cc2)CN1)N1CCN(C2CCCC2)CC1` [Example 80, (2R,4S)-2-(4-Cyclopentyl-piperazine-1-carbonyl)-4-(4-fluoro-phenoxy)-pyrrolidine]: the Ki (read-out: Human H3 Ki) amounted to 40 nM.
On the same count and under the same terms, for `N#Cc1ccc(O[C@@H]2CN[C@@H](C(=O)N3CCN(C4CCCC4)CC3)C2)cc1` [Example 81, (2R,4S)-4-(4-Cyano-phenoxy)-2-(4-cyclopentyl-piperazine-1-carbonyl)-pyrrolidine] the value was 23 nM; for `CN(C)[C@H]1CCN(C(=O)[C@H]2C[C@H](Oc3cccc(F)c3)CN2)C1` [Example 85], 1300 nM.
For `O=C([C@H]1C[C@H](Oc2ccccn2)CN1)N1CCCN(C2CCC2)CC1` [Example 98, (2R,4S)-2-(4-Cyclobutyl-[1,4]diazepane-1-carbonyl)-4-(pyridin-2-yloxy)-pyrrolidine], the Ki turned out to be 5 nM.
For the molecule `Cc1cnc(F)cc1O[C@@H]1CN[C@@H](C(=O)N2CCCN(C3CCC3)CC2)C1` [Example 99, (2R,4S)-2-(4-Cyclobutyl-[1,4]diazepane-1-carbonyl)-4-(2-fluoro-5-methyl-pyridin-4-yloxy)-pyrrolidine], for the setting “read-out: Human H3 Ki”, the Ki amounted to 2 nM.
The same measure, in the same setting: the same measure for `Cc1cnc(O[C@@H]2CN[C@@H](C(=O)N3CCCN(C4CCC4)CC3)C2)cc1I` [Example 100, (2R,4S)-2-(4-Cyclobutyl-[1,4]diazepane-1-carbonyl)-4-(4-iodo-5-methyl-pyridin-2-yloxy)-pyrrolidine]: 2 nM; for `O=C([C@H]1C[C@H](Oc2cccnc2)CN1)N1CCCN(C2CCC2)CC1` [Example 101, (2R,4S)-2-(4-Cyclobutyl-[1,4]diazepane-1-carbonyl)-4-(Pyridin-3-yloxy)-pyrrolidine]: 3 nM.
The same measure, in the same setting: the same measure for `CC(C)N1C[C@@H](Oc2ccc(F)cc2)C[C@H]1C(=O)N1CCCN(C2CCC2)CC1` [Example 108, (2S,4S)-(4-Cyclobutyl-[1,4]diazepan-1-yl)-[4-(4-fluoro-phenoxy)-1-isopropyl-pyrrolidin-2-yl]-methanone]: 594 nM; for `CCN1C[C@@H](Oc2ccc(F)cc2)C[C@H]1C(=O)N1CCCN(C2CCC2)CC1` [Example 109, (2S,4S)-(4-Cyclobutyl-[1,4]diazepan-1-yl)-[1-ethyl-4-(4-fluoro-phenoxy)-pyrrolidin-2-yl]-methanone]: 55 nM.
The same measure, in the same setting: for `O=C([C@H]1C[C@H](Oc2ccc(F)cc2)CN1C1CCC1)N1CCCN(C2CCC2)CC1` [Example 111, (2R,4S)-1-Cyclobutyl-2-(4-cyclobutyl-[1,4]diazepane-1-carbonyl)-4-(4-fluoro-phenoxy)-pyrrolidine] the value was 17 nM.
Turning to `CC(C)N1C[C@@H](Oc2ccc(F)cc2)C[C@@H]1C(=O)N1CCCN(C2CCC2)CC1` [Example 112, (2R,4S)-1-Isopropyl-1-cyclobutyl-2-(4-cyclobutyl-[1,4]diazepane-1-carbonyl)-4-(4-fluoro-phenoxy)-pyrrolidine], the Ki (Method 2, SK-N-MC cell membranes, [125I]-iodoproxyfan 1 nM, apparent Ki, free base or hydrochloride salt, average of results, read-out: Human H3 Ki) amounted to 12 nM.
As to `O=C([C@H]1C[C@H](Oc2ccc(F)cc2)CN1CC1CC1)N1CCCN(C2CCC2)CC1` [Example 113, (2R,4S)-1-Cyclopropylmethyl-2-(4-cyclobutyl-[1,4]diazepane-1-carbonyl)-4-(4-fluoro-phenoxy)-pyrrolidine], for the setting “read-out: Human H3 Ki”, the Ki is 7 nM.
